From PubChem BioAssay AID330 (DTP/NCI, 2004)
Where “and” joins values, the source holds several entries; their conditions need not be identical. Identical values can stand only once. Toxic doses and inconclusive results are not listed. How the source made its calls: active means survival T/C of 150% or more; inactive means T/C below 125% in these data.

Tested on: P388 leukemia ip, CD2F1 mice, survival T/C
Assay: NCI In Vivo Anticancer Drug Screen. Data for tumor model P388 Leukemia (intraperitoneal) in CD2F1 (CDF1) mice
Details: endpoint: median survival time, higher = longer survival
In short: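 Mice carrying the transplanted tumor received test compound or vehicle. Survival was recorded in each group, and the value is the treated-group measurement divided by that of the vehicle-treated control group.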

[1] = dose: 50.0 mg/kg/injection, schedule: Q01DX009 (ip), vehicle: saline
[2] = dose: 100.0 mg/kg/injection, schedule: Q01DX009 (ip), vehicle: saline
[3] = dose: 200.0 mg/kg/injection, schedule: Q01DX009 (ip), vehicle: saline
[4] = dose: 100.0 mg/kg/injection, schedule: Q01DX009 (ip), vehicle: Klucel (hydroxypropylcellulose) (HPC)
[5] = dose: 200.0 mg/kg/injection, schedule: Q01DX009 (ip), vehicle: Klucel (hydroxypropylcellulose) (HPC)
[6] = dose: 6.25 mg/kg/injection, schedule: Q01DX009 (ip), vehicle: Klucel (hydroxypropylcellulose) (HPC)
[7] = dose: 12.5 mg/kg/injection, schedule: Q01DX009 (ip), vehicle: Klucel (hydroxypropylcellulose) (HPC)
[8] = dose: 25.0 mg/kg/injection, schedule: Q01DX009 (ip), vehicle: Klucel (hydroxypropylcellulose) (HPC)
[9] = dose: 60.0 mg/kg/injection, schedule: Q01DX005 (ip), vehicle: saline with Tween-80
[10] = dose: 120.0 mg/kg/injection, schedule: Q01DX005 (ip), vehicle: saline with Tween-80
[11] = dose: 240.0 mg/kg/injection, schedule: Q01DX005 (ip), vehicle: saline with Tween-80

Measured: T/C

COc1cc2ccc(=O)oc2cc1O
inactive: dose: 3.75 mg/kg/injection, schedule: Q01DX009 (ip), vehicle: saline with Tween-80 100 % of control | dose: 7.5 mg/kg/injection, schedule: Q01DX009 (ip), vehicle: saline with Tween-80 103 % of control and 98 % of control | dose: 15.0 mg/kg/injection, schedule: Q01DX009 (ip), vehicle: saline with Tween-80 100 % of control and 107 % of control | dose: 30.0 mg/kg/injection, schedule: Q01DX009 (ip), vehicle: saline with Tween-80 104 % of control and 91 % of control | [1] 95 % of control | dose: 50.0 mg/kg/injection, schedule: Q01DX009 (ip), vehicle: suspension in saline 99 % of control and 106 % of control | [2] 100 % of control | dose: 100.0 mg/kg/injection, schedule: Q01DX009 (ip), vehicle: suspension in saline 104 % of control and 109 % of control | [3] 100 % of control | dose: 200.0 mg/kg/injection, schedule: Q01DX009 (ip), vehicle: suspension in saline 107 % of control and 108 % of control | dose: 400.0 mg/kg/injection, schedule: Q01DX009 (ip), vehicle: saline 100 % of control | dose: 400.0 mg/kg/injection, schedule: Q01DX009 (ip), vehicle: suspension in saline 111 % of control

NC1[N-]C(C2CCCC[N-]2)CC2C(Cl)CCCC12.O=[N+]([O-])O.O=[N+]([O-])O.[Cu+2] (centres undefined)
inactive: dose: 6.25 mg/kg/injection, schedule: Q04DX002 (ip), vehicle: suspension in saline 101 % of control | dose: 12.5 mg/kg/injection, schedule: Q04DX002 (ip), vehicle: suspension in saline 111 % of control

CSc1nc2ccc(N=Cc3ccc([N+](=O)[O-])cc3)cc2s1
inactive: dose: 50.0 mg/kg/injection, schedule: Q01DX009 (ip), vehicle: Klucel (hydroxypropylcellulose) (HPC) 98 % of control | [4] 86 % of control | [5] 87 % of control and 92 % of control

O=C(Nc1ccc(C(=O)O)cc1)Nc1ccc(C(=O)O)cc1
inactive: dose: 100.0 mg/kg/injection, schedule: Q04DX002 (ip), vehicle: Klucel (hydroxypropylcellulose) (HPC) 99 % of control | dose: 200.0 mg/kg/injection, schedule: Q04DX002 (ip), vehicle: Klucel (hydroxypropylcellulose) (HPC) 109 % of control

COc1ccc2c(c1)CCC1(C)CC(=O)C=C21 (centres undefined)
inactive: [6] 115 % of control | [7] 114 % of control | [8] 108 % of control

Nc1ccc(/C=C\c2nccc3ccccc23)cc1
inactive: dose: 3.13 mg/kg/injection, schedule: Q01DX009 (ip), vehicle: saline with Tween-80 102 % of control

COC(C)(C)O/N=C(\C[P+](c1ccccc1)(c1ccccc1)c1ccccc1)c1ccc(Cl)cc1
inactive: [6] 109 % of control | [7] 106 % of control | [8] 99 % of control

C=C1C(=O)C[C@H]2[C@H]3CC[C@H](C(=O)O)[C@]12CC3(C)C
inactive: dose: 7.5 mg/kg/injection, schedule: Q01DX005 (ip), vehicle: Klucel (hydroxypropylcellulose) (HPC) 119 % of control | dose: 15.0 mg/kg/injection, schedule: Q01DX005 (ip), vehicle: Klucel (hydroxypropylcellulose) (HPC) 113 % of control | dose: 30.0 mg/kg/injection, schedule: Q01DX005 (ip), vehicle: Klucel (hydroxypropylcellulose) (HPC) 119 % of control | dose: 31.5 mg/kg/injection, schedule: Q01DX005 (ip), vehicle: Klucel (hydroxypropylcellulose) (HPC) 111 % of control

N#Cc1c(=O)[nH]c(=O)n2c1[nH]c1ccccc12
inactive: dose: 15.0 mg/kg/injection, schedule: Q01DX005 (ip), vehicle: saline with Tween-80 102 % of control | dose: 30.0 mg/kg/injection, schedule: Q01DX005 (ip), vehicle: saline with Tween-80 104 % of control | [9] 105 % of control and 88 % of control

COC(=O)C(=O)c1c(C(=O)OC)nc2[nH]n(-c3ccccc3)c(=O)c2c1Cc1ccccc1
inactive: [9] 98 % of control | [10] 100 % of control | [11] 91 % of control

C=C(C)C1CC=C(/C=N/O)CC1 (centres undefined)
inactive: dose: 100.0 mg/kg/injection, schedule: Q01DX009 (ip), vehicle: saline with Tween-80 100 % of control | dose: 400.0 mg/kg/injection, schedule: Q01DX009 (ip), vehicle: saline with Tween-80 91 % of control

C=C/C(=C/CC(=O)O[C@@H]1CCC(C)(C)C(C=O)=C1C)Sc1ccccc1
inactive: dose: 50.0 mg/kg/injection, schedule: Q01DX001 (ip), vehicle: DMSO 92 % of control | dose: 100.0 mg/kg/injection, schedule: Q01DX001 (ip), vehicle: DMSO 92 % of control | dose: 200.0 mg/kg/injection, schedule: Q01DX001 (ip), vehicle: DMSO 92 % of control

CCc1n[nH]c(CC)c1CCCCCCOc1ccc(OC)cc1Cl
inactive: dose: 50.0 mg/kg/injection, schedule: Q01DX005 (ip), vehicle: saline with Tween-80 102 % of control | [9] 100 % of control | dose: 100.0 mg/kg/injection, schedule: Q01DX005 (ip), vehicle: saline with Tween-80 105 % of control | [10] 93 % of control | dose: 200.0 mg/kg/injection, schedule: Q01DX005 (ip), vehicle: saline with Tween-80 108 % of control | [11] 106 % of control

COc1cccc(C2SCC(=O)N2c2nncs2)c1OC (centres undefined)
inactive: dose: 60.0 mg/kg/injection, schedule: Q01DX005 (ip), vehicle: Klucel (hydroxypropylcellulose) (HPC) 106 % of control | dose: 120.0 mg/kg/injection, schedule: Q01DX005 (ip), vehicle: Klucel (hydroxypropylcellulose) (HPC) 95 % of control | dose: 240.0 mg/kg/injection, schedule: Q01DX005 (ip), vehicle: Klucel (hydroxypropylcellulose) (HPC) 98 % of control

O/N=C(/Cc1nc2cc(Cl)c(Cl)cc2nc1C/C(=N/O)c1cccc2ccccc12)c1cccc2ccccc12
inactive: [9] 91 % of control | [10] 99 % of control | [11] 94 % of control

CC(=O)C1=C(N)OCCC1
inactive: [1] 114 % of control | [2] 107 % of control | [3] 109 % of control

CC(C)c1ccc(C2C3CCN2CC3)cc1 (centres undefined)
inactive: [1] 91 % of control

C[C@H]1CCC2=C(C1)NC(N)=NC2(C)C
inactive: dose: 12.5 mg/kg/injection, schedule: Q04DX002 (ip), vehicle: saline with Tween-80 93 % of control | dose: 25.0 mg/kg/injection, schedule: Q04DX002 (ip), vehicle: saline with Tween-80 93 % of control | dose: 50.0 mg/kg/injection, schedule: Q04DX002 (ip), vehicle: saline with Tween-80 98 % of control

N=C(N)c1ccc(NC(=S)Nc2ccc(C(=N)N)cc2)cc1
inactive: dose: 6.25 mg/kg/injection, schedule: Q01DX009 (ip), vehicle: saline 101 % of control | dose: 12.5 mg/kg/injection, schedule: Q01DX009 (ip), vehicle: saline 99 % of control | dose: 25.0 mg/kg/injection, schedule: Q01DX009 (ip), vehicle: saline 99 % of control

CC1(C)OC2OC3C(O)C(=O)OC3C2O1 (centres undefined)
inactive: dose: 60.0 mg/kg/injection, schedule: Q01DX005 (ip), vehicle: saline 107 % of control | dose: 120.0 mg/kg/injection, schedule: Q01DX005 (ip), vehicle: saline 97 % of control | dose: 240.0 mg/kg/injection, schedule: Q01DX005 (ip), vehicle: saline 99 % of control

COc1ccc(CCN(C=O)c2ccc(OC)c(OC)c2)cc1OC
inactive: dose: 25.0 mg/kg/injection, schedule: Q01DX009 (ip), vehicle: other 115 % of control | dose: 50.0 mg/kg/injection, schedule: Q01DX009 (ip), vehicle: other 108 % of control | dose: 100.0 mg/kg/injection, schedule: Q01DX009 (ip), vehicle: other 102 % of control | dose: 200.0 mg/kg/injection, schedule: Q01DX009 (ip), vehicle: other 108 % of control | dose: 400.0 mg/kg/injection, schedule: Q01DX009 (ip), vehicle: other 96 % of control

O=c1oc(-c2ccccc2I)ns1
inactive: [4] 113 % of control | [5] 114 % of control | dose: 400.0 mg/kg/injection, schedule: Q01DX009 (ip), vehicle: Klucel (hydroxypropylcellulose) (HPC) 96 % of control
